Paper PMC5218480 (PLoS ONE, 2017)

System: MV-4-11 cells
Assay: Gene expression microarray analysis (Affymetrix PrimeView) and GSEA
Format: cell-based, human
Parameters: RFU PODN (11730768_x_at) / Fold change /veh PODN (11730768_x_at) / RFU LINC00158 (11744669_a_at) / Fold change /veh LINC00158 (11744669_a_at) / RFU DUSP10 (11751237_a_at) / Fold change /veh DUSP10 (11751237_a_at) / RFU ID3 (11757404_x_at) / Fold change /veh ID3 (11757404_x_at) / RFU PLEKHG5 (11737974_s_at) / Fold change /veh PLEKHG5 (11737974_s_at) / RFU LRRC4B (11730491_at) / Fold change /veh LRRC4B (11730491_at) / RFU GIMAP4 (11747438_a_at) / Fold change /veh GIMAP4 (11747438_a_at) / RFU KRT8 (11758183_x_at) / Fold change /veh KRT8 (11758183_x_at) / RFU CNN1 (11734310_a_at) / Fold change /veh CNN1 (11734310_a_at) / RFU VPS37D (11726825_at) / Fold change /veh VPS37D (11726825_at) / RFU C10orf10 (11716522_x_at) / Fold change /veh C10orf10 (11716522_x_at) / RFU KIR2DL2 /// KIR2DL4 /// KIR2DL5A /// KIR2DL5B /// KIR2DS1 /// KIR2DS2 /// KIR2DS3 /// KIR2DS4 /// KIR3DL3 /// KIR3DL3 /// KIR3DS1 (11738374_at) / Fold change /veh KIR2DL2 /// KIR2DL4 /// KIR2DL5A /// KIR2DL5B /// KIR2DS1 /// KIR2DS2 /// KIR2DS3 /// KIR2DS4 /// KIR3DL3 /// KIR3DL3 /// KIR3DS1 (11738374_at) / RFU C1QL1 (11718748_at) / Fold change /veh C1QL1 (11718748_at) / RFU TMPRSS4 (11747572_a_at) / Fold change /veh TMPRSS4 (11747572_a_at) / RFU HAMP (11756126_x_at) / Fold change /veh HAMP (11756126_x_at) / RFU RNFT2 (11725882_a_at) / Fold change /veh RNFT2 (11725882_a_at) / RFU NR4A2 (11747474_a_at) / Fold change /veh NR4A2 (11747474_a_at) / RFU ABCC12 (11746883_a_at) / Fold change /veh ABCC12 (11746883_a_at) / RFU TMEM136 (11760407_x_at) / Fold change /veh TMEM136 (11760407_x_at) / RFU CLDN22 /// WWC2 (11732394_at) / Fold change /veh CLDN22 /// WWC2 (11732394_at) / RFU HLA-DPB1 (11760878_x_at) / Fold change /veh HLA-DPB1 (11760878_x_at) / RFU SPINT1 (11716480_a_at) / Fold change /veh SPINT1 (11716480_a_at) / RFU GAP43 (11754022_s_at) / Fold change /veh GAP43 (11754022_s_at) / RFU A4GNT (11735810_at) / Fold change /veh A4GNT (11735810_at) / RFU PRB3 (11715151_x_at) / Fold change /veh PRB3 (11715151_x_at) / RFU TUBB4B (11761932_at) / Fold change /veh TUBB4B (11761932_at) / RFU CAPN14 (11732068_a_at) / Fold change /veh CAPN14 (11732068_a_at) / RFU TMCC2 (11721928_a_at) / Fold change /veh TMCC2 (11721928_a_at) / RFU IRGQ (11745062_a_at) / Fold change /veh IRGQ (11745062_a_at) / RFU FAM174B (11720279_a_at) / Fold change /veh FAM174B (11720279_a_at) / RFU TMPRSS4 (11748680_a_at) / Fold change /veh TMPRSS4 (11748680_a_at) / RFU FAM212B (11763350_a_at) / Fold change /veh FAM212B (11763350_a_at) / RFU PLEKHG5 (11743358_a_at) / Fold change /veh PLEKHG5 (11743358_a_at) / RFU ZSCAN30 (11745921_a_at) / Fold change /veh ZSCAN30 (11745921_a_at) / RFU CMKLR1 (11741424_a_at) / Fold change /veh CMKLR1 (11741424_a_at) / RFU LOC101060620 /// MAPK8IP1 (11723275_at) / Fold change /veh LOC101060620 /// MAPK8IP1 (11723275_at) / RFU SPTSSB (11747773_x_at) / Fold change /veh SPTSSB (11747773_x_at) / RFU PRSS12 (11739890_at) / Fold change /veh PRSS12 (11739890_at) / RFU BIN1 (11741810_x_at) / Fold change /veh BIN1 (11741810_x_at) / RFU WNT11 (11732464_a_at) / Fold change /veh WNT11 (11732464_a_at) / RFU C10orf10 (11716521_a_at) / Fold change /veh C10orf10 (11716521_a_at) / RFU C5orf56 (11738089_at) / Fold change /veh C5orf56 (11738089_at) / RFU CYB561 (11721691_x_at) / Fold change /veh CYB561 (11721691_x_at) / RFU ANKRD19P (11752326_a_at) / Fold change /veh ANKRD19P (11752326_a_at) / RFU OR2T12 /// OR2T33 /// OR2T8 (11738714_s_at) / Fold change /veh OR2T12 /// OR2T33 /// OR2T8 (11738714_s_at) / RFU VCAN (11748164_a_at) / Fold change /veh VCAN (11748164_a_at) / RFU JSRP1 (11732532_at) / Fold change /veh JSRP1 (11732532_at) / RFU KRTAP10-11 (11738290_x_at) / Fold change /veh KRTAP10-11 (11738290_x_at) / RFU MYO3A (11730013_a_at) / Fold change /veh MYO3A (11730013_a_at) / RFU EBF3 (11725865_a_at) / Fold change /veh EBF3 (11725865_a_at) / RFU CAMK2N1 (11719241_x_at) / Fold change /veh CAMK2N1 (11719241_x_at) / RFU C5orf56 (11738088_a_at) / Fold change /veh C5orf56 (11738088_a_at) / RFU OLFML3 (11715873_a_at) / Fold change /veh OLFML3 (11715873_a_at) / RFU LOC100653217 /// NTM (11731650_a_at) / Fold change /veh LOC100653217 /// NTM (11731650_a_at) / RFU MAPK11 (11762145_a_at) / Fold change /veh MAPK11 (11762145_a_at) / RFU FIZ1 (11724087_x_at) / Fold change /veh FIZ1 (11724087_x_at) / RFU OASL (11726364_x_at) / Fold change /veh OASL (11726364_x_at) / RFU SOX15 (11748057_x_at) / Fold change /veh SOX15 (11748057_x_at) / RFU CD79A (11719716_a_at) / Fold change /veh CD79A (11719716_a_at) / RFU HIST1H1D (11736915_at) / Fold change /veh HIST1H1D (11736915_at) / RFU CASKIN2 (11723855_a_at) / Fold change /veh CASKIN2 (11723855_a_at) / RFU LOC730098 (11760151_x_at) / Fold change /veh LOC730098 (11760151_x_at) / RFU OR4N2 (11742367_at) / Fold change /veh OR4N2 (11742367_at) / RFU PRRT2 (11749266_a_at) / Fold change /veh PRRT2 (11749266_a_at) / RFU SNX32 (11753110_a_at) / Fold change /veh SNX32 (11753110_a_at) / RFU CDHR5 (11726645_a_at) / Fold change /veh CDHR5 (11726645_a_at) / RFU RCAN1 (11760418_a_at) / Fold change /veh RCAN1 (11760418_a_at) / RFU FAM167A (11723789_a_at) / Fold change /veh FAM167A (11723789_a_at) / RFU FAM26E (11764081_at) / Fold change /veh FAM26E (11764081_at) / RFU ISYNA1 (11749810_s_at) / Fold change /veh ISYNA1 (11749810_s_at) / RFU ACY1 (11761880_at) / Fold change /veh ACY1 (11761880_at) / RFU 11764098_at / Fold change /veh 11764098_at / RFU SAMD14 (11745864_x_at) / Fold change /veh SAMD14 (11745864_x_at) / RFU NPB (11741838_a_at) / Fold change /veh NPB (11741838_a_at) / RFU TMPRSS6 (11731388_a_at) / Fold change /veh TMPRSS6 (11731388_a_at) / RFU KRTAP10-2 (11738614_at) / Fold change /veh KRTAP10-2 (11738614_at) / RFU ARHGAP8 /// PRR5-ARHGAP8 (11727945_x_at) / Fold change /veh ARHGAP8 /// PRR5-ARHGAP8 (11727945_x_at) / RFU KRTAP5-7 /// NADSYN1 (11734609_at) / Fold change /veh KRTAP5-7 /// NADSYN1 (11734609_at) / RFU RASL12 (11751679_a_at) / Fold change /veh RASL12 (11751679_a_at) / RFU CDKN2B (11736163_a_at) / Fold change /veh CDKN2B (11736163_a_at) / RFU PRF1 (11729649_at) / Fold change /veh PRF1 (11729649_at) / RFU, ZNF638 /// ZNF638-IT1 / Fold change vs veh, ZNF638 /// ZNF638-IT1 / RFU, PANK3 / Fold change vs veh, PANK3 / RFU, SH3YL1 / Fold change vs veh, SH3YL1 / RFU, ZEB2 / Fold change vs veh, ZEB2 / RFU, NRIP1 / Fold change vs veh, NRIP1 / RFU, PTTG1IP / Fold change vs veh, PTTG1IP / RFU, CAPN2 / Fold change vs veh, CAPN2 / RFU, MED14 / Fold change vs veh, MED14 / RFU, SNORA58 / Fold change vs veh, SNORA58 / RFU, C1orf63 / Fold change vs veh, C1orf63 / RFU, LRRFIP1 / Fold change vs veh, LRRFIP1 / RFU, NDUFAF7 / Fold change vs veh, NDUFAF7 / RFU, SLC12A2 / Fold change vs veh, SLC12A2 / RFU, IBTK / Fold change vs veh, IBTK / RFU, ESF1 / Fold change vs veh, ESF1 / Fold change vs veh, TMEM50B / RFU, TAOK1 / Fold change vs veh, TAOK1 / RFU, ACBD3 / Fold change vs veh, ACBD3 / RFU, TMA16 / Fold change vs veh, TMA16 / RFU, RWDD3 / Fold change vs veh, RWDD3 / RFU, BCAT1 / Fold change vs veh, BCAT1 / RFU, EDEM3 / Fold change vs veh, EDEM3 / RFU, TMEM33 / Fold change vs veh, TMEM33 / RFU, WDR75 / Fold change vs veh, WDR75 / RFU, AHCTF1 / Fold change vs veh, AHCTF1 / RFU, TFRC / Fold change vs veh, TFRC / RFU, ZDHHC17 / Fold change vs veh, ZDHHC17 / RFU, NOM1 / Fold change vs veh, NOM1 / RFU, ARL8B / Fold change vs veh, ARL8B / RFU, ZBTB11 / Fold change vs veh, ZBTB11 / RFU, TAMM41 / Fold change vs veh, TAMM41 / RFU, KIAA1704 /// LOC100996395 / Fold change vs veh, KIAA1704 /// LOC100996395 / RFU, ING1 / Fold change vs veh, ING1 / RFU, TRMT61B / Fold change vs veh, TRMT61B / RFU, FUBP3 / Fold change vs veh, FUBP3 / RFU, TP53 / Fold change vs veh, TP53 / RFU, TNKS2 / Fold change vs veh, TNKS2 / RFU, ZFP14 / Fold change vs veh, ZFP14 / RFU, ACTR2 / Fold change vs veh, ACTR2 / RFU, PPP3R1 / Fold change vs veh, PPP3R1 / RFU, PIK3R1 / Fold change vs veh, PIK3R1 / RFU, HNRNPA1 / Fold change vs veh, HNRNPA1 / RFU, RNF170 / Fold change vs veh, RNF170 / RFU, ZNF28 / Fold change vs veh, ZNF28 / RFU, RNGTT / Fold change vs veh, RNGTT / RFU, OGT / Fold change vs veh, OGT / RFU, BRD1 / Fold change vs veh, BRD1 / RFU, MARS / Fold change vs veh, MARS / RFU, ZNF655 / Fold change vs veh, ZNF655 / RFU, FAHD1 / Fold change vs veh, FAHD1 / RFU, BDP1 / Fold change vs veh, BDP1 / RFU, LRRCC1 / Fold change vs veh, LRRCC1 / RFU, ARID1A / Fold change vs veh, ARID1A / RFU, ZNF146 / Fold change vs veh, ZNF146 / RFU, ZNF330 / Fold change vs veh, ZNF330 / RFU, GPN3 / Fold change vs veh, GPN3 / RFU, C9orf123 / Fold change vs veh, C9orf123 / RFU, N4BP2L2 / Fold change vs veh, N4BP2L2 / RFU, ARFIP1 / Fold change vs veh, ARFIP1 / RFU, FAM179B / Fold change vs veh, FAM179B / RFU, BCL10 / Fold change vs veh, BCL10 / RFU, UHRF1BP1L / Fold change vs veh, UHRF1BP1L / RFU, BET1 / Fold change vs veh, BET1 / RFU, CNOT2 / Fold change vs veh, CNOT2 / RFU, ZNF268 / Fold change vs veh, ZNF268 / Fold change vs veh, ZNF507 / RFU, DGCR2 / Fold change vs veh, DGCR2 / RFU, WDSUB1 / Fold change vs veh, WDSUB1 / Fold change vs veh, HSP90B1 /// MIR3652 / RFU, ADSS / Fold change vs veh, ADSS / RFU, GK / Fold change vs veh, GK / RFU, ZNF148 / Fold change vs veh, ZNF148 / RFU, TAF9 / Fold change vs veh, TAF9 / RFU, SLC1A5 / Fold change vs veh, SLC1A5 / RFU, SLMO2 / Fold change vs veh, SLMO2 / RFU, ABCC4 / Fold change vs veh, ABCC4 / RFU, LOC101060439 /// RAP1B / Fold change vs veh, LOC101060439 /// RAP1B / RFU, RFX7 / Fold change vs veh, RFX7 / RFU, GTPBP10 / Fold change vs veh, GTPBP10 / RFU, CNEP1R1 / Fold change vs veh, CNEP1R1 / RFU, BIVM-ERCC5 /// ERCC5 / Fold change vs veh, BIVM-ERCC5 /// ERCC5 / RFU, ILF3 / Fold change vs veh, ILF3 / RFU 11762660_at / Fold change /veh 11762660_at / RFU VCAN (11757783_s_at) / Fold change /veh VCAN (11757783_s_at) / RFU DDX43 (11728927_at) / Fold change /veh DDX43 (11728927_at) / RFU KRT8 (11758188_x_at) / Fold change /veh KRT8 (11758188_x_at) / RFU NKD1 (11759106_at) / Fold change /veh NKD1 (11759106_at) / RFU SRD5A1 (11742802_a_at) / Fold change /veh SRD5A1 (11742802_a_at) / RFU TPSAB1 /// TPSB2 (11721975_s_at) / Fold change /veh TPSAB1 /// TPSB2 (11721975_s_at) / RFU GSTM3 (11746129_a_at) / Fold change /veh GSTM3 (11746129_a_at) / RFU IL23R (11737362_x_at) / Fold change /veh IL23R (11737362_x_at) / RFU TMEM51 (11727254_a_at) / Fold change /veh TMEM51 (11727254_a_at) / RFU PIWIL2 (11732686_x_at) / Fold change /veh PIWIL2 (11732686_x_at) / RFU ORM1 (11744905_x_at) / Fold change /veh ORM1 (11744905_x_at) / RFU CCDC152 (11743942_at) / Fold change /veh CCDC152 (11743942_at) / RFU ECM1 (11717891_a_at) / Fold change /veh ECM1 (11717891_a_at) / RFU IL23R (11748794_a_at) / Fold change /veh IL23R (11748794_a_at) / RFU TNFAIP8L3 (11732012_x_at) / Fold change /veh TNFAIP8L3 (11732012_x_at) / RFU MBOAT4 (11741988_at) / Fold change /veh MBOAT4 (11741988_at) / RFU 11764193_at / Fold change /veh 11764193_at / RFU TMEM53 (11763286_at) / Fold change /veh TMEM53 (11763286_at) / RFU MAGEB2 (11727129_at) / Fold change /veh MAGEB2 (11727129_at) / RFU TMEM200A (11744735_a_at) / Fold change /veh TMEM200A (11744735_a_at) / RFU CCDC152 (11751479_a_at) / Fold change /veh CCDC152 (11751479_a_at) / RFU FAM211A (11726209_a_at) / Fold change /veh FAM211A (11726209_a_at) / RFU RGS16 (11746705_a_at) / Fold change /veh RGS16 (11746705_a_at) / RFU VCAN (11755009_s_at) / Fold change /veh VCAN (11755009_s_at) / RFU RHOB (11743442_s_at) / Fold change /veh RHOB (11743442_s_at) / RFU RGS16 (11720943_a_at) / Fold change /veh RGS16 (11720943_a_at) / RFU RGS16 (11720944_at) / Fold change /veh RGS16 (11720944_at) / RFU, VPS4B / Fold change vs veh, VPS4B / RFU, CREB1 / Fold change vs veh, CREB1 / RFU, DNAJC13 / Fold change vs veh, DNAJC13 / RFU, GNAQ / Fold change vs veh, GNAQ / RFU, CDK5R1 / Fold change vs veh, CDK5R1 / RFU, ZRANB3 / Fold change vs veh, ZRANB3 / RFU, CUL4A / Fold change vs veh, CUL4A / RFU, CCNY / Fold change vs veh, CCNY / RFU, UFL1 / Fold change vs veh, UFL1 / RFU, COG3 / Fold change vs veh, COG3 / RFU, DIAPH2 / Fold change vs veh, DIAPH2 / RFU, SKA2 / Fold change vs veh, SKA2 / RFU, AFF3 / Fold change vs veh, AFF3 / RFU, LMF1 / Fold change vs veh, LMF1 / RFU, IPO11 / Fold change vs veh, IPO11 / RFU, DFFB / Fold change vs veh, DFFB / RFU, FOXP1 / Fold change vs veh, FOXP1 / RFU, CARD8 / Fold change vs veh, CARD8 / RFU, STRN3 / Fold change vs veh, STRN3 / RFU, ADK / Fold change vs veh, ADK / RFU, RASSF2 / Fold change vs veh, RASSF2 / RFU, WIPF1 / Fold change vs veh, WIPF1 / RFU, LARP1B / Fold change vs veh, LARP1B / RFU, RASA1 / Fold change vs veh, RASA1 / RFU, RB1 / Fold change vs veh, RB1 / RFU, PPFIA1 / Fold change vs veh, PPFIA1 / RFU, MAT2A / Fold change vs veh, MAT2A / RFU, CCT5 / Fold change vs veh, CCT5 / RFU, WDR92 / Fold change vs veh, WDR92 / RFU, CUX1 / Fold change vs veh, CUX1 / RFU, TTC7A / Fold change vs veh, TTC7A / RFU, TMEM135 / Fold change vs veh, TMEM135 / RFU, DEPTOR / Fold change vs veh, DEPTOR / RFU, CPM / Fold change vs veh, CPM / RFU, DNAJB6 / Fold change vs veh, DNAJB6 / RFU, CACNA2D3 / Fold change vs veh, CACNA2D3 / RFU, DTX4 / Fold change vs veh, DTX4 / RFU, TFCP2 / Fold change vs veh, TFCP2 / RFU, GMCL1 /// GMCL1P1 / Fold change vs veh, GMCL1 /// GMCL1P1 / RFU, AEBP2 / Fold change vs veh, AEBP2 / RFU, SNHG1 /// SNORD22 /// SNORD25 /// SNORD26 /// SNORD27 /// SNORD28 /// SNORD29 /// SNORD31 / Fold change vs veh, SNHG1 /// SNORD22 /// SNORD25 /// SNORD26 /// SNORD27 /// SNORD28 /// SNORD29 /// SNORD31 / Fold change (Aza/veh), C12orf56 (ProbeSet 11735607_a_at) / Fold change (ACY-1035/veh), C12orf56 (ProbeSet 11735607_a_at) / Fold change (Aza/veh), FGFR1OP (ProbeSet 11751329_s_at) / Fold change (ACY-1035/veh), FGFR1OP (ProbeSet 11751329_s_at) / Fold change (Aza/veh), VPS36 (ProbeSet 11739960_a_at) / Fold change (ACY-1035/veh), VPS36 (ProbeSet 11739960_a_at) / RFU SYPL1 (11715823_x_at) / Fold change /veh SYPL1 (11715823_x_at) / RFU IGFBP7 (11715501_s_at) / Fold change /veh IGFBP7 (11715501_s_at) / RFU REEP3 (11722064_at) / Fold change /veh REEP3 (11722064_at) / RFU IGLL1 (11728026_x_at) / Fold change /veh IGLL1 (11728026_x_at): dose or concentration left out as unconfirmed
Details: MV-4-11 cells, 48 hours

Nc1ncn([C@@H]2O[C@H](CO)[C@@H](O)[C@H]2O)c(=O)n1 [azacitidine]
RFU CDHR5 (11726645_a_at): 45.99 RFU
